Values belong to the compound of their own block, whether it stands above or below them.
Tests used:
[1] = Inhibition of thrombin-induced platelet aggregation in human platelet-rich plasma incubated for 1 min followed by thrombin addition; type: functional
[2] = Inhibition of PAF-induced platelet aggregation in human platelet-rich plasma incubated for 1 min followed by PAF addition; type: functional
[3] = Inhibition of arachidonic acid-induced platelet aggregation in human platelet-rich plasma incubated for 1 min followed by arachidonic acid addition; type: functional, cell-based
[4] = Inhibition of collagen-induced platelet aggregation in human platelet-rich plasma incubated for 1 min followed by collagen addition; type: functional
Cynomolgus monkey [5] = assay: Antithrombotic activity in cynomolgus monkey model of electrolytic carotid artery thrombosis assessed as reduction in thrombus weight at 0.5 mg/kg, PO administered once daily for 3 days measured at 2 hrs post last dose relative to control; type: functional, Macaca fascicularis; set-up: scale not given: the % may be the effect or the level left; conditions: time 3 day
[6] = Antagonist activity at PAR4 in cynomolgus monkey whole blood assessed as inhibition of Ala-(L-4-F-Phe)-Pro-Gly-Trp-Leu-Val-Lys-Asn-Gly-induced platelet aggregation preincubated for 10 mins followed by Ala-(L-4-F-Phe)-Pro-Gly-Trp-Leu-Val-Lys-Asn-Gly stimulation; type: tissue-based; conditions: Macaca fascicularis
Rhesus monkey [7] = assay: Antithrombotic activity in monkey assessed as increase in mesenteric artery bleeding time at 0.5 mg/kg administered as single dose cotreated with aspirin measured at 2 hrs post dose relative to control; type: functional, Macaca mulatta
[8] = biological target: T1, Proteinase-activated receptor 4 (Homo sapiens, UniProt Q96RI0); assay: Inhibition of human PAR4 expressed in HEK293 cells assessed as Ala-(L-4-F-Phe)-Pro-Gly-Trp-Leu-Val-Lys-Asn-Gly-induced inhibition of calcium mobilization preincubated for 30 mins followed by Ala-(L-4-F-Phe)-Pro-Gly-Trp-Leu-Val-Lys-Asn-Gly stimulation by FLIPR method; type: functional, cell-based
T1 sequence (Q96RI0 whole entry): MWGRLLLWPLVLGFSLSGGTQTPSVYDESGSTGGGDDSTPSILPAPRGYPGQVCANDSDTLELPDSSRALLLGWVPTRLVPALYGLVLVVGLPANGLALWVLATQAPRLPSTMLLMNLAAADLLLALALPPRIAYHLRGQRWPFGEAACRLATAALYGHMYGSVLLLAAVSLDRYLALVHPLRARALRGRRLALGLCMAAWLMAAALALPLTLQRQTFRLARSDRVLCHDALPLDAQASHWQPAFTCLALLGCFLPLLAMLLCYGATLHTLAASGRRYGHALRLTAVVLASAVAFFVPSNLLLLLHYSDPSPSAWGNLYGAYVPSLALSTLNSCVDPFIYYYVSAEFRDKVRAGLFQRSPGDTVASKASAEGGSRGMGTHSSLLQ

Rhesus monkey [9] = assay: Antithrombotic activity in monkey assessed as increase in mesenteric artery bleeding time at 0.05 to 0.5 mg/kg administered as single dose measured at 2 hrs post dose relative to control; type: functional, Macaca mulatta; conditions: dose 0.05-0.5 mg/kg
Rhesus monkey [10] = assay: Antithrombotic activity in monkey model of electrolytic carotid artery thrombosis assessed as reduction in thrombus weight at 0.5 mg/kg administered as single dose measured at 2 hrs post dose relative to control; type: functional, Macaca mulatta; set-up: scale not given: the % may be the effect or the level left
Rhesus monkey [11] = assay: Antithrombotic activity in monkey model of electrolytic carotid artery thrombosis assessed as reduction in thrombus weight at 0.1 mg/kg administered as single dose measured at 2 hrs post dose; type: functional, Macaca mulatta; set-up: scale not given: the % may be the effect or the level left
Rhesus monkey [12] = assay: Antithrombotic activity in monkey model of electrolytic carotid artery thrombosis assessed as reduction in thrombus weight at 0.05 mg/kg administered as single dose measured at 2 hrs post dose; type: functional, Macaca mulatta; set-up: scale not given: the % may be the effect or the level left
Rhesus monkey [13] = assay: Antithrombotic activity in monkey assessed as increase in mesenteric artery bleeding time at 0.1 mg/kg administered as single dose cotreated with aspirin measured at 2 hrs post dose relative to control; type: functional, Macaca mulatta
Cynomolgus monkey [14] = assay: Antithrombotic activity in cynomolgus monkey model of electrolytic carotid artery thrombosis assessed as reduction in thrombus weight at 4 mg/kg/hr, iv administered as single dose measured at 2 hrs post dose relative to control; type: functional, Macaca fascicularis; set-up: scale not given: the % may be the effect or the level left
Rhesus monkey [15] = assay: Antithrombotic activity in monkey model of electrolytic carotid artery thrombosis assessed as reduction in thrombus weight at 0.1 mg/kg administered as single dose cotreated with aspirin measured at 2 hrs post dose relative to control; type: functional, Macaca mulatta; set-up: scale not given: the % may be the effect or the level left
Rhesus monkey [16] = assay: Antithrombotic activity in monkey assessed as increase in mesenteric artery bleeding time at 4 mg/kg/hr, iv administered as single dose measured at 2 hrs post dose relative to control; type: functional, Macaca mulatta
Rhesus monkey [17] = assay: Antithrombotic activity in monkey model of electrolytic carotid artery thrombosis assessed as reduction in thrombus weight at 0.5 mg/kg administered as single dose cotreated with aspirin measured at 2 hrs post dose relative to control; type: functional, Macaca mulatta; set-up: scale not given: the % may be the effect or the level left
Cynomolgus monkey [18] = assay: Antithrombotic activity in cynomolgus monkey model of electrolytic carotid artery thrombosis assessed as increase in mesenteric bleeding time at 1 mg/kg, PO administered once daily for 3 days measured at 2 hrs post last dose; type: functional, Macaca fascicularis; conditions: time 3 day
Cynomolgus monkey [19] = assay: Antithrombotic activity in cynomolgus monkey model of electrolytic carotid artery thrombosis assessed as increase in provoked kidney bleeding time at 1 mg/kg, PO administered once daily for 3 days measured at 2 hrs post last dose; type: functional, Macaca fascicularis; conditions: time 3 day

SMILES: COc1cc(OCc2nc(N3CCOCC3)sc2C)c2cc(-c3cn4nc(OC)sc4n3)oc2c1
Activity (Cynomolgus monkey [5]): 50%
IC50 [6]: 0.0021 µM

SMILES: COc1cc(OCc2nc(-c3ccc(C(=O)N(C)C)cc3)sc2C)c2cc(-c3cn4nc(OC)sc4n3)oc2c1
fold change (FC) (Rhesus monkey [7]): 3
IC50 [8]: 0.00045 µM
fold change (FC) (Rhesus monkey [9]): <=1.2
Activity (Rhesus monkey [10]): 88%
Activity (Rhesus monkey [11]): 63%
Activity (Rhesus monkey [12]): 36%
fold change (FC) (Rhesus monkey [13]): 2.6

SMILES: COc1cnc2c(-c3nc4cc(F)c(O[C@@H]5CCC(C)(C)[C@@H]5OC(=O)Nc5ccnc(C)n5)cc4s3)cc(C)cc2n1
IC50 [8]: 0.0024 µM

SMILES: CC(=O)Oc1ccccc1C(=O)O [ASPIRIN]
Activity (Cynomolgus monkey [14]): 12%
Activity (Rhesus monkey [15]): 50%
fold change (FC) (Rhesus monkey [16]): 2.2
Activity (Rhesus monkey [17]): 89%

SMILES: COC(=O)[C@H](c1ccccc1Cl)N1CCc2sccc2C1 [CLOPIDOGREL]
fold change (FC) (Cynomolgus monkey [18]): >10
fold change (FC) (Cynomolgus monkey [19]): >10

Results, then the compound that gave them:

IC50 [1]: > 270 µM
IC50 [2]: > 270 µM
SMILES: COC(=O)c1ccc(-c2nn(-c3ccccc3)c3ccccc23)o1

IC50 [1]: 126 µM
IC50 [2]: 76.3 µM
IC50 [3]: 32.4 µM
IC50 [4]: 59.3 µM
SMILES: COC(=O)c1ccc(-c2nn(Cc3ccccc3)c3cc(C)ccc23)o1

IC50 [3]: 185 µM
SMILES: CCOC(=O)c1ccc(-c2nn(Cc3ccccc3)c3ccccc23)cc1

IC50 [1]: > 270 µM
IC50 [2]: 235 µM
IC50 [3]: 156 µM
IC50 [4]: 148 µM
SMILES: O=C(O)c1ccc(-c2nn(Cc3ccccc3)c3ccccc23)cc1

IC50 [1]: > 270 µM
IC50 [2]: > 270 µM
IC50 [3]: 92.3 µM
IC50 [4]: 157 µM
SMILES: COC(=O)c1ccc(-c2nn(Cc3ccccc3)c3cc4c(cc23)OCO4)o1

IC50 [1]: > 270 µM
IC50 [2]: > 270 µM
SMILES: CCOC(=O)c1cccc(-c2nn(Cc3ccccc3)c3ccccc23)c1

— ChEMBL document CHEMBL4732062, “Protease activated receptor 4 (PAR4) antagonists: Research progress on small molecules in the field of antiplatelet agents” (Eur J Med Chem, 2021)
